{"source": "patent US11672802B2", "about": "“Induction of immune tolerance by using methotrexate” (Genzyme Corporation, priority 2011, dated 2023)", "key": {"[1]": {"tested_on": "circulating and splenic T cells and B cells", "assay": "Flow cytometry of alemtuzumab-mediated lymphocyte depletion in blood and spleen", "format": "in vivo, huCD52 Tg mice", "description": "For splenocyte and lymph node cell preparations single-cell suspensions were generated from harvested mouse spleens or inguinal and mesenteric lymph nodes by homogenization between frosted glass slides into PBS containing 2% FCS. For splenocyte preparations, red blood cells were lysed by 1-2 minute incubation with a red blood cell lysis solution (BD Biosciences, San Diego, Calif.). Blood was isolated by retro-orbital bleeding and cell preparations were performed by lysing red blood cells with red blood cell lysing solution (BD Biosciences) for 20-30 minutes. For all tissue preparations, live cells were enumerated using the ViCell automated counter (Beckman Coulter, Fullerton, Calif.). Following isolation, all cell preparations were washed with PBS/2% FCS prior to use in the assays described below.\nFor evaluation of cell populations within different tissues, single cell suspensions of the tissues were incubated with fluorochrome-conjugated antibodies that included anti-mouse CD4, CD8, CD25, CD44, CD62L (all antibodies from BD Biosciences or eBioscience, San Diego, Calif.). Intracellular Foxp3 expression analysis was performed according to the anti-Foxp3 manufacturer's protocol (eBiosciences, San Diego, Calif.). Following incubation with the antibodies, cells were washed and analyzed by flow cytometry (FACSCanto, BD Biosciences and FCS Express software, De Novo Software, Los Angeles, Calif.)."}, "[2]": {"tested_on": "splenic B and T cell subsets", "assay": "Flow cytometry of splenic B and T cell subsets after rhGAA and methotrexate", "format": "in vivo, mice", "description": "20 mg/kg of Myozyme® (Genzyme Corporation) was given by tail vein injection once or for 2-6 weekly doses, commencing with the first methotrexate dose. Animals were sacrificed weekly or daily after initiation of treatment. Spleen, mesenteric, and inguinal lymph nodes were collected for flow cytometric analysis of T and B cell subsets and sera was collected for ELISA assays. Spleens were processed between glass slides and red blood cells (RBC) was lysed with lysing buffer purchased from BD Biosciences (catalog#555899) according to the manufacturer's instructions. Lymph nodes were processed between glass slides and washed with phosphate buffered saline (PBS) containing 2% fetal calf serum (FCS). Cells were resuspended in 200 μL of PBS containing 4% fetal bovine serum and 25 μg/mL of total mouse IgG and blocked for 30 minutes at 4° C. Approximately 3 million spleens cells and 1 million lymph node cells were stained with different antibody cocktails and analyzed with a high through put sampler (HTS) on a Becton Dickinson CANTOII flow cytometer. At least 100,000 cell events were acquired within the lymphocyte gate. Anti-mouse antibody cocktails consisted of PE-CD21/35 catalog #552957, FITC-catalog #553138, PE-CD138 catalog #553714, PE-PE-Cy7-CD4 catalog #552775, FITC-CD3e catalog #553062, APC-CD11b catalog #553312, PE-Cy7-IgM catalog #552867, APC-Cy7-CD8 catalog #557654, PE-CD273 (PD-L2) catalog #557796, APC-CD138 catalog #558626, PE-Cy7-CD11b catalog #552850, PE-CD93 (early B lineage) catalog #558039, APC-CD69 catalog #560689, Pe-Cy7-CD24 catalog #560536, FITC-CD1d catalog #553845, APC-CD5 catalog #550035, and Percp-Cy5-7AAD catalog #559925, all purchased from BD Pharmingen. FITC-FoxP3 intracellular staining kit was purchased from eBioscience. Pacific Blue (PB)-CD25 catalog #102022, PB-CD23 catalog #101616 and PB-CD86 catalog #105022 were purchased from BioLegend. Analysis of lymphocyte subsets was performed with FCS express version 3 software provided by De Novo Software. Percentages were generated with the batch processing option and absolute numbers were calculated according to the cell counts obtained. Spleen and lymph node cell counts were obtained with a Beckman Coulter Vi-cell XR cell viability analyzer according to the manufacturer's instructions.\nC57BL/6 (Jackson Laboratories) or E4GAAKO (Charles River) mice 8-12 weeks old were given 5 mg/kg of methotrexate (Calbiochem catalog #454125) by intraperitoneal injection for 1 cycle (3 consecutive daily doses) commencing with treatment with 20 mg/kg of rhGAA. For the 1D11 studies, animals were treated with intraperitoneal injections of 5 mg/kg of either 1D11 or 13C4 (Genzyme Corporation) 3 time per week, every other day, commencing with rhGAA and methotrexate treatment. Animals were sacrificed on day 6 or 7 post rhGAA initiation depending on the mouse strain. Spleens were prepared in single cell suspension and loaded onto the RoboSep (STEMCELL technologies) instrument according to the manufacturer's instructions and subjected to B cell negative selection. Purified B cells were seeded at 500,000 cells per well in 96 well round bottom plates (Costar catalog #3799) and either incubated with no stimulation or with 10 μg/mL of LPS (Sigma catalog #L5014) for 48 hours at 37° C. All wells received Monensin (BD Bioscience catalog #554724) according to the manufacturer's instructions. Cells were allowed to incubate for at least 4 hours at 37° C. Samples were transferred to V bottom wells (USA Scientific catalog #651201) and spun at 1200 rpm for 5 minutes at 4° C. Cells were resuspended in 200 μL of PBS containing 4% fetal bovine serum and 25 μg/ml of total mouse IgG and blocked for 30 minutes at 4° C."}, "anti-mATG antibody": {"tested_on": "anti-mATG antibody", "assay": "Anti-mATG titers in cardiac allograft transplant mice", "format": "in vivo", "details": "seven days following transplant, mice treated with methotrexate and mATG", "description": "Polyclonal antibody mATG was administered as an intraperitoneal injection of 5 mg/kg every four weeks or as two 20 mg/kg doses given four days apart when in the transplant setting with the first dose given on the day of transplant (day 0).\nThe levels of anti-mATG IgG in mouse serum were analyzed by enzyme linked immunosorbent assay (ELISA). […] End-point titers were defined as the […] dilution that averages above an absorbance of 0.100 using Softmax software (Molecular Devices, Sunnyvale, Calif., USA).\nC57BL/6 and BALB/c mice were obtained from Charles River (Kingston, N.Y. or Raleigh, N.C.) and used in these experiments between 8 and 13 weeks of age. The donor allogenic C57BL/6 mice were first anesthetized with an intraperitoneal injection of Ketamine (Fort Dodge Animal Health/Pfizer, Fort Dodge, Iowa) and Xylazine (Lloyd, Shenandoah, Iowa) and a median sternotomy was performed. […] The ascending aorta and pulmonary artery were then transected, the graft removed from the donor and the heart was stored in ice-cold saline until engraftment. A recipient mouse (Balb/c) was similarly anesthetized and prepped as described above for donor mice, except that the abdominal cavity was opened. […] Grafts were assessed by palpation 5-7 times per week for the first 30 day, and then 3-4 times per week until the end of the study."}, "[3]": {"details": "Myozyme and methotrexate vs Myozyme alone"}}}
{"smiles": "CN(Cc1cnc2nc(N)nc(N)c2n1)c1ccc(C(=O)N[C@@H](CCC(=O)O)C(=O)O)cc1", "note": "[methotrexate, Methotrexate]", "values": [{"measurement": "depletion of circulating T cells by fifth monthly dose of alemtuzumab", "setting": "[1]; alemtuzumab alone, or with methotrexate 5 mg/kg daily for first three days", "result": "restored the ability of alemtuzumab to deplete T cells"}, {"measurement": "splenic T cell populations", "setting": "[1]; methotrexate-treated animals, one day following fifth alemtuzumab treatment", "result": "significantly depleted"}, {"measurement": "splenic B cell populations, except follicular B cells", "setting": "[1]; mice treated with alemtuzumab and methotrexate, after fifth alemtuzumab dose", "result": "not significantly depleted"}, {"measurement": "effect on marginal zone B cells with alemtuzumab", "setting": "[1]; spleen, two days following last day of methotrexate treatment", "result": "may enhance the depletion of marginal zone B cells"}, {"measurement": "depletion of circulating B cells by fifth monthly dose of alemtuzumab", "setting": "[1]; with methotrexate 5 mg/kg daily for first three days", "result": "enhance the depletion of B cells"}, {"measurement": "IL-10, TGFbeta and FoxP3 mean fluorescence intensity in multiple cell subsets", "setting": "[2]; [3]", "result": "statistically significant increases"}, {"measurement": "number of B10 B cells expressing IL-10", "setting": "[2]; [3]", "result": "increased"}, {"measurement": "activated B cell subsets (marginal zone, follicular, transitional 2 and 3)", "setting": "[2]; following methotrexate treatment with rhGAA", "result": "significantly increased"}, {"measurement": "numbers of FoxP3+ B cells", "setting": "[2]; methotrexate and Myozyme", "result": "increase"}, {"measurement": "absolute cell numbers of IL-10, TGF-beta and FoxP3 expressing transitional 2, transitional 3 and follicular B cells", "setting": "[2]; methotrexate vs Myozyme alone", "result": "increased"}, {"measurement": "numbers of TGF-beta-expressing B10 B cells", "setting": "[2]; methotrexate-tolerized animals", "result": "increased"}, {"measurement": "B10 regulatory B cell population", "setting": "[2]; seven and eight days following Myozyme treatment", "result": "significant increases"}, {"measurement": "activated T helper, T cytotoxic and T regulatory cell populations", "setting": "[2]; two cycles of Myozyme and methotrexate", "result": "largely unchanged"}, {"measurement": "anti-rabbit IgG antibody titers", "setting": "anti-mATG antibody", "result": "significantly lower"}]}
